Test results published in patent US20230250393A1, “PRE-TREATING CARDIOMYOCYTES WITH ANTI-ARRHYTHMIC DRUGS TO REDUCE ENGRAFTMENT ARRHYTHMIA” (priority 2022, published 2023).
Read-outs that look alike come from different tables or passages of the source. Marks after values point to notes of the source that are not given here.

Columns and labels:
[1] = test system: engraftment arrhythmia (EA); conditions: for Effect on HR (heart rate) during EA / Effect: response on EA burden / Effect on rhythm: cardioversion / restoration of sinus rhythm: acute response, infarcted pigs with hESC-CM transplant in EA, dosages and routes as in Table 1; for Effect on EA heart rate and rhythm in the screen (overall): short-term intravenous infusion or oral treatment
Text: The objective of this study was to identify a pharmacological regimen to attenuate arrhythmias following cardiac remuscularization therapy. This study was designed in two phases: the first, to observe the natural history of EA and screen various antiarrhythmic agents for efficacy, and the second, to test for efficacy (FIG. 1). All subjects were 30-40 kg castrated male Yucatan minipigs between 6-13 months of age (S&S Farms). In Phase 1, nine subjects underwent cardiac remuscularization therapy with 500×10^6 hESC-CM delivered by direct surgical transepicardial injections or later, by percutaneous transendocardial injections. The first four subjects (one non-infarcted and three infarcted) were followed to learn the natural history of EA and establish clinical endpoints and parameters for the Phase 2 drug trial. The subsequent five subjects underwent systematic dosing with antiarrhythmic agents with continuous electrocardiography (ECG) monitoring to determine effect on rhythm and rate (Table 1).
(§1) Telemetric ECG was continuously monitored in real-time from the time of myocardial infarction to detect the primary endpoint of cardiac death or unstable EA. Automated quantification of heart rate and arrhythmia burden was performed offline by a board-certified cardiologist using the ecgAUTO™ 3.3.5.10 software package (EMKA Technologies). Arrhythmia was defined as an ectopic beat (e.g. premature ventricular contraction) or rhythm (e.g. idioventricular rhythm, ventricular tachycardia). […] Heart rate and arrhythmia burden were quantified for two continuous minutes every five minutes (40% of total rhythm was counted) and presented as daily averages.
Subjects were administered multiple trials antiarrhythmics and observed for acute response by continuous ECG monitoring. Intravenous agents were delivered as a bolus dose over 2 minutes. Oral agents were administrated by direct observation in a minimum of apples, apple sauce or pumpkin puree with daily feeding and dosed daily for dose escalation. A washout period of at least three days was provided between agents. Amiodarone was administered as the last agent for testing given concern for prolonged half-life and elimination kinetics. All agents were tested in at least two subjects.
In Phase 1 of the study, the inventors screened six canonical antiarrhythmic agents broadly targeting sodium channels, potassium channels, and beta-adrenergic receptors: lidocaine (Ib, sodium channel inhibitor), flecainide (Ic, sodium channel inhibitor), propafenone (Ic, sodium channel inhibitor), amiodarone (III, potassium channel inhibitor), sotalol (III, potassium channel inhibitor) and metoprolol (β1-adrenergic receptor inhibitor) for effect on EA heart rate and rhythm. In addition, the funny current/HCN4 channel antagonist, ivabradine, was tested (Table 1). This series were not meant to be definitive but rather to rapidly identify the candidate agents.

[2] = Amiodarone drug monitoring by liquid chromatography-mass spectrometry; type: in vivo; conditions: trough, within 1 week of discontinuation of chronic oral amiodarone, 6 pigs, mean ± SEM
Procedure: FIG. 8 Plasma amiodarone levels in pigs. Amiodarone levels were measured in plasma by a custom liquid chromatography-mass spectrometry assay. Chronic oral amiodarone in six pigs was discontinued after achieving electrical maturation and stabilization of engraftment arrythmia. Serum through concentrations of amiodarone were assayed weekly including 3-4 weeks after discontinuation.
A novel liquid chromatography—mass spectrometry assay was established for amiodarone to monitor steady state serum levels in the porcine model and guide oral dosing to ensure efficacy and avoid dose-related toxicity. A target serum level of 1.5-4.0 μg/ml was extrapolated from prior human pharmacokinetic studies (16,17). Elimination kinetics after discontinuation of oral amiodarone therapy were also studied by obtaining weekly trough concentrations in 6 pigs (subjects 6, 7, 8, 13, 14, 16) (FIG. 8).

[3] = test system: engraftment arrhythmia (EA); type: in vivo; conditions: chronic amiodarone
Procedure: as §1
Data are presented as mean±standard error of the mean (SEM).

Structure (SMILES): CC(C)NCC(O)c1ccc(NS(C)(=O)=O)cc1 (stereo not shown) [Sotalol, sotalol]
- Effect on HR (heart rate) during EA [1]: No response on HR
- Effect: response on EA burden [1]: No response
- Effect on EA heart rate and rhythm in the screen (overall) [1]: no significant effect

Structure (SMILES): O=C(NCC1CCCCN1)c1cc(OCC(F)(F)F)ccc1OCC(F)(F)F (stereo not shown) [Flecainide, flecainide]
- Effect on HR (heart rate) during EA [1]: No response on HR
- Effect: response on EA burden [1]: No response
- Effect on EA heart rate and rhythm in the screen (overall) [1]: no significant effect

Structure (SMILES): COCCc1ccc(OCC(O)CNC(C)C)cc1 (stereo not shown) [Metoprolol, metoprolol]
- Effect on HR (heart rate) during EA [1]: Moderate HR effect (IV only),
- Effect: response on EA burden [1]: no response on EA burden
- Effect on EA heart rate and rhythm in the screen (overall) [1]: no significant effect

Structure (SMILES): COc1cc2c(cc1OC)CC(=O)N(CCCN(C)C[C@H]1Cc3cc(OC)c(OC)cc31)CC2 [Ivabradine, ivabradine]
- Effect: response on EA burden [1]: effect (PO only)**, no
- Effect on HR (heart rate) during EA ([1]; listed as ivabradine): robust dose-dependent effects on heart rate
- Effect on rhythm: cardioversion / restoration of sinus rhythm ([1]; listed as ivabradine): did not restore sinus rhythm
- Adverse effects observed in screening ([1]; minipig, in vivo): **Severe bradycardia

Structure (SMILES): CCCCc1oc2ccccc2c1C(=O)c1cc(I)c(OCCN(CC)CC)c(I)c1 [Amiodarone, amiodarone]
- Effect on HR (heart rate) during EA [1]: Modest HR effect
- Average serum amiodarone after discontinuation [2]: 0.42 ± 0.12 µg/mL
- Burden of EA, chronic treatment (in words) [3]: reduced the burden of EA chronically

Structure (SMILES): CCN(CC)CC(=O)Nc1c(C)cccc1C [Lidocaine, lidocaine]
- Effect on HR (heart rate) during EA [1]: Modest HR effect
- Effect on rhythm: cardioversion / restoration of sinus rhythm [1]: rare
- Effect on EA heart rate and rhythm in the screen (overall) [1]: no significant effect
